According to publication PMC7848139, “Novel Hybrid CHC from β-carboline and N-Hydroxyacrylamide Overcomes Drug-Resistant Hepatocellular Carcinoma by Promoting Apoptosis, DNA Damage, and Cell Cycle Arrest” (Frontiers in Pharmacology, 2021):

Experiments:
[1] = tested on: CT-DNA; test: UV-visible spectroscopy titrations with CT DNA; type: binding, calf; settings: 20 μM compound, equal increments of CT-DNA, 25°C
Procedure: The ultraviolet spectrophotometer (UV2500, Shimadzu, Tokyo, Japan) recorded UV–visible spectroscopy under titrations at 25°C. Tris buffer (5 mM) was used to prepare Stock solutions of CT DNA (20 μM, calf thymus DNA) comprising ideal structure of double stranded DNA. Dissolving synthesized derivative in 1:1000 DMSO/Milli Q water to prepare stock solutions of them (20 μM). UV–visible absorption titrations were carried out with addition of 100 μl CT DNA solution to 4 ml solution of tested compound in quartz cuvette each time interval. Until the absorption band of complex containing synthesized derivative and CT DNA kept at a stable wavelength after adding CT DNA successfully for five times, titrations were finished. Finally, spectrophotometer noted the absorption spectra (250–500 nm).
FIGURE 7 UV-visible absorption spectra of CHC after adding equal amounts of CT DNA. Arrows indicate changes in absorbance with increasing concentrations of DNA [CHC] = 20 μM.

[2] = tested on: Bel7402; test: MTT antiproliferative assay, Bel7402; type: cell-based; settings: Homo sapiens, Bel-7402, 72 h, mean ± SD of three experiments, read-out: In vitro antiproliferative activity (IC50) Bel7402
Procedure: (§1) Briefly, appropriate cells (1 × 10^4 cells/mL) were placed into 96-well plates in 100 μL of DMEM medium overnight. Then adding 100 μL of evaluated compounds into individual well for 72 h while 0.1% DMSO aqueous solution was treated as the negative control. After incubation with 30 μl MTT (5 mg/mL) for 4 h in all well, and ELISA plate reader measured absorbance of each well at 570 nm. Then calculating cytotoxicity effect of evaluated compounds through the formula: Cell inhibitory percentage (%) = (1−OD of treatment group/OD of control) × 100%.

[3] = target: T1, recombinant human HDAC8 (Homo sapiens, UniProt Q9BY41); test: HDAC fluorimetric assay, HDAC8; type: biochemical; settings: mean ± SD of three experiments
T1 construct: purchased Enzo Life Sciences Inc
T1 sequence (Q9BY41 1-377): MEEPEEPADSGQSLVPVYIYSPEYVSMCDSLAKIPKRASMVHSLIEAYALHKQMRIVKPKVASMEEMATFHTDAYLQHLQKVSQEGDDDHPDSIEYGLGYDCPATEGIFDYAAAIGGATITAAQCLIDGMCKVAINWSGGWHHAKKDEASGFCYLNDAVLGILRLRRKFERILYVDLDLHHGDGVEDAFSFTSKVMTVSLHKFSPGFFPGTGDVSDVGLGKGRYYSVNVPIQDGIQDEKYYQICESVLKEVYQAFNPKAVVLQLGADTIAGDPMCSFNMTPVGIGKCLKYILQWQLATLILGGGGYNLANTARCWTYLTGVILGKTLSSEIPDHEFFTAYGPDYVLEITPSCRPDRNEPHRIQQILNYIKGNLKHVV
Procedure: (§2) The assay was conducted according to the HDAC1/3/6/8 assay kit (Enzo Life Sciences Inc.). Each different concentrations of evaluated compounds were, respectively, incubated with each HDAC1/3/6/8 at coupling of corresponding HDAC substrate (Boc-Lys (Ac)-AMC) at 37°C for 60 min. Then stopping the reaction under adding lysine developer.

[4] = target: T2, recombinant human HDAC3 (Homo sapiens, UniProt O15379); test: HDAC fluorimetric assay, HDAC3; type: biochemical; settings: mean ± SD of three experiments
T2 construct: purchased Enzo Life Sciences Inc
Procedure: as §2

[5] = tested on: Bel7402/5-FU cells; test: Cell apoptosis analysis by flow cytometry; type: cell-based, human; settings: 72 h
Procedure: Briefly, Bel7402/5-FU cells were cultured in DMEM at 37°C with 5% CO2 for 12 h. […] Then Bel7402/5-FU cells were collected and using APC-Annexin V and 7-AAD to stain these cells under the condition of 37°C for 15 min. Flow cytometry analysis (Calibur, BD, United States) decide the percentage of apoptotic cells according to APC signal (FL4) (excitation wavelength at 633 nm; emission wavelength at 660 nm) and 7-AAD staining signal (FL3) (excitation wavelength at 488 nm; emission wavelength at 647 nm). WinList 3D (7.1) analyzed the data and Excel 2016 plotted the histogram.
FIGURE 5 CHC causes apoptosis of Bel7402/5-FU cells. […] The data (mean ± SD, percentage of apoptotic cells) represent the average of three separate experiments. *p < 0.01 vs. control.

[6] = tested on: H2AX (S139ph) in Bel7402/5-FU cells; test: Western blotting of DNA damage marker H2AX; type: cell-based, human; settings: 72 h
Procedure: The HDAC, autophagy and apoptosis-related proteins were analyzed according to Western blotting assay. […]. And anti-Ac-histone H3, anti-Ac-histone H4, anti-Ac-α-tubulin, anti-Bax, anti-Bcl2, anti-H2AX (S139ph), anti-CDK1, anti-cyclin B, and anti-β-actin antibodies (Cell Signaling Technology, MA, United States) detected the target proteins after membranes were blocked with 5% fat-free milk. The peroxidase-conjugated secondary antibodies detected the bound antibodies for 1 h and visualized according to improved chemiluminescent reagent.
[…]; (B) The relative expression levels of H2AX protein were quantitatively analyzed using an internal reference β-actin, and the data (mean ± SD) were from three separate experiments. *p < 0.01 vs. control.

[7] = tested on: Bel7402/5-FU xenografts; test: In vivo tumor growth inhibition, Bel7402/5-FU xenograft; parameters: species or system BALB/c nude mice; settings: intraperitoneal daily, 21 days
Procedure: All animal experimental protocols were approved by the Animal Research and Care Committee of Nantong University. Female BALB/c nude mice at 5∼6 week-old were subcutaneously implanted with 1×10^6 Bel7402/5-FU cells. […] The body mass and tumor size of nude mice were surveyed every three days during the 21 days study. Tumor size (mm^3) of nude mice was determined using the formula: tumor size = ½ (Length×Width^2). Finally, these tumor-bearing mice were sacrificed, and their tumors were removed and weighed at the end of the 21 days.
Data (means ± SD) were from tumor volumes or weight of each group of mice (n = 6 per group). *p < 0.01 vs. control group.

[8] = tested on: Bel7402/5-FU; test: MTT antiproliferative assay, Bel7402/5-FU; type: cell-based; settings: Homo sapiens, drug-resistant HCC cells, 72 h, mean ± SD of three experiments, read-out: In vitro antiproliferative activity (IC50) Bel7402/5-FU
Procedure: as §1

[9] = tested on: SMMC-7721; test: MTT antiproliferative assay, SMMC-7721; type: cell-based; settings: Homo sapiens, 72 h, mean ± SD of three experiments, read-out: In vitro antiproliferative activity (IC50) SMMC-7721
Procedure: as §1

T2 sequence (O15379 whole entry): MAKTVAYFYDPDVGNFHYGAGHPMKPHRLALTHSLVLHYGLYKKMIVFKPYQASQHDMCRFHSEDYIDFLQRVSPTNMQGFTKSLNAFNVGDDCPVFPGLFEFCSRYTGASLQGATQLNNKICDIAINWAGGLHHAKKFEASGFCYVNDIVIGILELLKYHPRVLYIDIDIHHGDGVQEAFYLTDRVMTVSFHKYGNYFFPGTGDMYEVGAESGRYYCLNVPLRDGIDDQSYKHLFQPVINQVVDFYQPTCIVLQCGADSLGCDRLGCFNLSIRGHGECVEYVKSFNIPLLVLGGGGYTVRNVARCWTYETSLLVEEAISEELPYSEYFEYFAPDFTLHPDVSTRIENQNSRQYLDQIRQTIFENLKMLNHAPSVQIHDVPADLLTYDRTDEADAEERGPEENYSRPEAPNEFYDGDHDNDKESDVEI
T2 sequence (O75376 395-489 partner limits assumed): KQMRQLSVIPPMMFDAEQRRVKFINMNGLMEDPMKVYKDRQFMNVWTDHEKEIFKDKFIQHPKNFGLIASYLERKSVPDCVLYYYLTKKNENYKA

## CN(C)c1ccc(-c2nc(C(=O)NCc3ccc(/C=C/C(=O)NO)cc3)cc3c2[nH]c2ccccc23)cc1 [CHC, (E)-N-(4-(3-(hydroxyamino)-3-oxoprop-1-en-1-yl)benzyl)-1-(4-dimethylaminophenyl)-9H-pyrido [3,4-b]indole-3-carboxamide]
[1]
  change of UV-visible absorption upon adding CT-DNA: absorption at all wavelengths gradually decreased
[2]
  IC50: 1840 ± 230 nM
[3]
  IC50: > 1000 nM
[4]
  IC50: 134 ± 16 nM
[5]; 2.0 μM
  rate of Annexin V+ Bel7402/5-FU cellular apoptosis: 42.3%
[5]; 5.0 μM
  rate of Annexin V+ Bel7402/5-FU cellular apoptosis: 67.2%
[6]
  expression of phosphorylated H2AX: induced the expression of phosphorylated H2AX in Bel7402/5-FU cells in a dosage-dependent manner
[7]; 70 μmol/kg
  decrease of tumor mass compared to saline group: 65 % (w/w)
[7]; 70 μmol/kg, n = 6, saline group 1.47 ± 0.21 g
  tumor mass at end of treatment: 0.51 ± 0.08 g
[7]
  body mass change vs vehicle group: no significant statistical difference
  xenograft hepatic tumor volume: markedly diminished xenograft hepatic tumor volume
[8]
  IC50: 2170 ± 350 nM
[9]
  IC50: 3270 ± 360 nM
